Key:
[1] = test system: Erysiphe [syn. Blumeria] graminis form a specialis tritici; assay: Activity against mildew of wheat caused by Erysiphe [syn. Blumeria] graminis forma specialis tritici; assay type: in vivo
Protocol: (§1) The active compounds, separately or jointly, were prepared as a stock solution with 0.25% by weight of active compound in acetone or DMSO. 1% by weight of the emulsifier Uniperol® EL (wetting agent having emulsifying and dispersing action based on ethoxylated alkylphenols) was added to this solution, and the solution was diluted with water to the desired concentration.
(§2) Evaluation was carried out by determining the infected leaf areas in percent. These percentages were converted into efficacies. The efficacy (E) is calculated as follows using Abbot's formula: E=(1−α/β)·100 α corresponds to the fungicidal infection of the treated plants in % and β corresponds to the fungicidal infection of the untreated (control) plants in %
(§3) An efficacy of 0 means that the infection level of the treated plants corresponds to that of the untreated control plants; an efficacy of 100 means that the treated plants were not infected.
(§4) The expected efficacies of the mixtures of active compounds are determined using Colby's formula [R.S. Colby, Weeds 15, 20-22 (1967)] and compared with the observed efficacies. Colby's formula: E=x+y−x·y/100 E expected efficacy, expressed in % of the untreated control, when using the mixture of the active compounds A and B at the concentrations a and b x efficacy, expressed in % of the untreated control, when using active compound A at the concentration a y efficacy, expressed in % of the untreated control, when using active compound B at the concentration b
Leaves of wheat seedlings of the cultivar “Kanzler” grown in pots, were sprayed to runoff point with an aqueous suspension having the concentration of active compounds stated below. 24 hours after the spray coating had dried on, dusted with spores of mildew of wheat (Erysiphe [syn. Blumeria] graminis form a specialis tritici). The test plants were then placed in a greenhouse at 20-24° C. and 60-90% relative atmospheric humidity. After 7 days, the extent of the mildew development was determined visually in % infection of the entire leaf area.

Puccinia recondita = assay: Curative action against brown rust of wheat caused by Puccinia recondita; assay type: in vivo; details: wheat cultivar Kanzler, 7 days
Protocol: as §1, §2, §3, §4
Leaves of wheat seedlings of the cultivar “Kanzler”, grown in pots, were dusted with spores of brown rust (Puccinia recondita). The pots were then placed in the chamber with high atmospheric humidity (90-95%), at 20-22° C., for 24 hours. During this time the spores germinated and the germinal tubes penetrated into the leaf tissue. The next day, the infected plants were sprayed to runoff point with an aqueous suspension having the concentration of active compounds stated below. After the spray coating had dried on, the test plants were cultivated in a greenhouse at 20-22° C. and 65-70% relative atmospheric humidity for 7 days. Thereafter, the extent of the rust fungus development on the leaves was determined.

Row | SMILES | Efficacy in % of the untreated control ([1]; 0.25 ppm in the spray liquor, wheat cultivar Kanzler, sprayed 24 h before inoculation, 7 days) | Efficacy in % of the untreated control ([1]; 1 ppm in the spray liquor, wheat cultivar Kanzler, sprayed 24 h before inoculation, 7 days) | Efficacy in % of the untreated control ([1]; 4 ppm in the spray liquor, wheat cultivar Kanzler, sprayed 24 h before inoculation, 7 days) | Efficacy in % of the untreated control (Puccinia recondita; 1 ppm in the spray liquor) | Efficacy in % of the untreated control (Puccinia recondita; 4 ppm in the spray liquor) | Efficacy in % of the untreated control ([1]; 0.25 ppm) | Efficacy in % of the untreated control (Puccinia recondita; 0.06 ppm in the spray liquor) | Efficacy in % of the untreated control (Puccinia recondita; 0.25 ppm in the spray liquor)
1 | CC1CCN(c2c(-c3c(F)cc(F)cc3F)c(Cl)nc3ncnn23)CC1 [I, 5-chloro-7-(4-methylpiperidin-1-yl)-6-(2,4,6-trifluoro-phenyl)-[1,2,4]triazolo[1,5-a]pyrimidine] | 0% | 9% | 60% | 0% | 89% |  |  | 
2 | O=C(Cc1ccccc1)N/C(=N\OCC1CC1)c1c(C(F)(F)F)ccc(F)c1F [II.1] |  |  |  |  |  | 70% |  | 
3 | O=C(Cc1ccccc1)N/C(=N\OCC1CC1)c1c(OC(F)F)ccc(F)c1F [II.14] |  |  |  | 0% |  |  | 0% | 0%

Reference: patent US20070191397A1, “Fungicidal mixtures based on oxime ether derivatives” (priority 2004, published 2007)
